Legend:
[1] = test system: TNF-α (NF-κB pathway, THP-1 cells); assay: TNF-α Assay (IC50); assay type: cell-based, human; conditions: 600 ng/mL LPS, 3 hours
Procedure, shortened: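 Supernatant TNF-α quantified by ELISA after 3 h stimulation with 600 ng/mL LPS at 37 °C, following 30 min compound preincubation. Cells: IFN-differentiated (25 ng/mL, 24 h) THP-1 macrophages, 40,000/well, serum-free. IC50 by sigmoidal fit of % inhibition, with TPCA-1 as 100% control.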

[2] = test system: NLRP3 inflammasome (IL-1β production in THP-1 cells); assay: IL-1β TR-FRET Assay (percentage of inhibition at 300 nM, 6 μM or 10 μM); assay type: cell-based, human; conditions: LPS priming, ATP activation; for inhibition at 0.3 µM / inhibition at 6 µM: Homo sapiens; for inhibition at 0.3 µM: THP-1, 300 nM, read-out: IL-1β inhibitory rate at 300 nM (%); for inhibition at 6 µM: THP-1, 6 μM, read-out: IL-1β inhibitory rate at 6 μM (%)
Procedure, shortened: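 Percent inhibition of IL-1β used DMSO wells as 0% and 3 μM MCC-950 wells as full inhibition, with supernatant read by HTRF. Beforehand, IFN-γ-differentiated (25 ng/mL, 24 h), LPS-primed (50 ng/mL, 24 h) THP-1 cells received compound 30 min before inflammasome activation by 20 mM ATP for 2 h.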

SMILES | IC50 ([1]; Homo sapiens) | IC50 [1] | inhibition at 0.3 µM [2] | IL-1β inhibitory rate at 300 nM (%) ([2]; 300 nM, 0.3 µM) | inhibition at 6 µM [2]
Cc1cc(C2CC2)cc(C)c1-n1cc2c(=O)[nH]c(C3CCCO3)nc2n1 (single isomer, unassigned) [Example 228, 2-(4-cyclopropyl-2,6-dimethylphenyl)-6-[(2S)-oxolan-2-yl]-2,5-dihydro-4H-pyrazolo[3,4-d]pyrimidin-4-one or 2-(4-cyclopropyl-2,6-dimethylphenyl)-6-[(2R)-oxolan-2-yl]-2,5-dihydro-4H-pyrazolo[3,4-d]pyrimidin-4-one (HPLC Method A: tR2)] |  | > 30 µM |  | 79% | 
CCc1cc(C2(F)CC2)cc(C)c1-n1cc2c(=O)[nH]c(OC)nc2n1 [Example 301, 2-[2-ethyl-4-(1-fluorocyclopropyl)-6-methylphenyl]-6-methoxy-2,5-dihydro-4H-pyrazolo[3,4-d]pyrimidin-4-one] | > 30 µM |  |  |  | 98%
CCOc1nc2nn(-c3c(F)cc(C4CC4)cc3C(F)F)cc2c(=O)[nH]1 [Example 110, 2-[4-cyclopropyl-2-(difluoromethyl)-6-fluorophenyl]-6-ethoxy-2,5-dihydro-4H-pyrazolo[3,4-d]pyrimidin-4-one] | > 30 µM |  | 99% |  | 
COCCOc1nc2nn(-c3c(C)cc(C4CC4)cc3C)cc2c(=O)[nH]1 [Example 194, 2-(4-cyclopropyl-2,6-dimethylphenyl)-6-(2-methoxyethoxy)-2,5-dihydro-4H-pyrazolo[3,4-d]pyrimidin-4-one] | > 30 µM |  | 100% |  | 
COCCOc1nc2nn(-c3c(C)cc(Br)cc3C)cc2c(=O)[nH]1 [Example 175, 2-(4-bromo-2,6-dimethylphenyl)-6-(2-methoxyethoxy)-2,5-dihydro-4H-pyrazolo[3,4-d]pyrimidin-4-one] | > 30 µM |  | 112% |  | 
C=Cc1cc(C)c(-n2cc3c(=O)[nH]c(OCC)nc3n2)c(F)c1 [Example 120, 2-(4-ethenyl-2-fluoro-6-methylphenyl)-6-ethoxy-2,5-dihydro-4H-pyrazolo[3,4-d]pyrimidin-4-one] | > 30 µM |  | 101% |  | 
CCOc1nc2nn(-c3c(F)cc(C)cc3C3CC3)cc2c(=O)[nH]1 [Example 105, 2-(2-cyclopropyl-6-fluoro-4-methylphenyl)-6-ethoxy-2,5-dihydro-4H-pyrazolo[3,4-d]pyrimidin-4-one] | > 30 µM |  | 99% |  | 
Cc1cc(C)c(-n2cc3c(=O)[nH]c(C4CCCO4)nc3n2)c(O)c1 (stereo not shown) [Example 29, 2-(2-hydroxy-4,6-dimethylphenyl)-6-(oxolan-2-yl)-2,5-dihydro-4H-pyrazolo[3,4-d]pyrimidin-4-one] | > 30 µM |  | 97% |  | 
CCOc1nc2nn(-c3c(F)cc(OC)cc3CC(F)(F)F)cc2c(=O)[nH]1 [Example 162, 6-ethoxy-2-[2-fluoro-4-methoxy-6-(2,2,2-trifluoroethyl)phenyl]-2,5-dihydro-4H-pyrazolo[3,4-d]pyrimidin-4-one] | > 30 µM |  | 97% |  | 
Cc1ccc(C)c(-n2cc3c(=O)[nH]c(-c4ccncn4)nc3n2)c1O [Example 41, 2-(2-hydroxy-3,6-dimethylphenyl)-6-(pyrimidin-4-yl)-2,5-dihydro-4H-pyrazolo[3,4-d]pyrimidin-4-one] | > 30 µM |  | 99% |  | 
Cc1cc(C2CC2)cc(C)c1-n1cc2c(=O)[nH]c([C@@]3(F)CCCOC3)nc2n1 [Example 260, 2-(4-cyclopropyl-2,6-dimethylphenyl)-6-(3-fluorooxan-3-yl)-2,5-dihydro-4H-pyrazolo[3,4-d]pyrimidin-4-one] | > 30 µM |  |  |  | 96%
COc1nc2nn(-c3c(C)cc(C)cc3O)cc2c(=O)[nH]1 [Example 3, 2-(2-hydroxy-4,6-dimethylphenyl)-6-methoxy-2,5-dihydro-4H-pyrazolo[3,4-d]pyrimidin-4-one] | > 30 µM |  | 94% |  | 
CCOc1nc2nn(-c3ccc(C4CC4)cc3F)c(C)c2c(=O)[nH]1 [Example 111, 2-(4-cyclopropyl-2-fluorophenyl)-6-ethoxy-3-methyl-2,5-dihydro-4H-pyrazolo[3,4-d]pyrimidin-4-one] | > 30 µM |  | 95% |  | 
Cc1cc(C)c(-n2cc3c(=O)[nH]c(CN4CCOCC4)nc3n2)c(O)c1 [Example 62, 2-(2-hydroxy-4,6-dimethylphenyl)-6-[(morpholin-4-yl)methyl]-2,5-dihydro-4H-pyrazolo[3,4-d]pyrimidin-4-one] | > 30 µM |  | 95% |  | 
COC[C@H](C)Oc1nc2nn(-c3c(F)cc(C4CC4)cc3C(F)F)cc2c(=O)[nH]1 [Example 205, 2-[4-cyclopropyl-2-(difluoromethyl)-6-fluorophenyl]-6-{[(2S)-1-methoxypropan-2-yl]oxy}-2,5-dihydro-4H-pyrazolo[3,4-d]pyrimidin-4-one] | > 30 µM |  | 95% |  | 
COCc1nc2nn(-c3c(C)ccc(C)c3O)cc2c(=O)[nH]1 [Example 53, 2-(2-hydroxy-3,6-dimethylphenyl)-6-(methoxymethyl)-2,5-dihydro-4H-pyrazolo[3,4-d]pyrimidin-4-one] | > 30 µM |  | 95% |  | 
CCOc1nc2nn(-c3c(C)cc(OC)cc3C)cc2c(=O)[nH]1 [Example 145, 6-ethoxy-2-(4-methoxy-2,6-dimethylphenyl)-2,5-dihydro-4H-pyrazolo[3,4-d]pyrimidin-4-one] | > 30 µM |  | 106% |  | 

Further lines, with some results ahead:

IC50 ([1]; Homo sapiens) | IC50 [1] | SMILES | inhibition at 0.3 µM [2] | IL-1β inhibitory rate at 300 nM (%) ([2]; 300 nM, 0.3 µM) | inhibition at 6 µM [2]
> 30 µM |  | COc1nc2nn(-c3c(C)cc(C4CC4)cc3C)cc2c(=O)[nH]1 [Example 146, 2-(4-cyclopropyl-2,6-dimethylphenyl)-6-methoxy-2,5-dihydro-4H-pyrazolo[3,4-d]pyrimidin-4-one] | 94% |  | 
> 30 µM |  | CCOc1nc2nn(-c3c(F)cc(C)cc3Cl)cc2c(=O)[nH]1 [Example 135, 2-(2-chloro-6-fluoro-4-methylphenyl)-6-ethoxy-2,5-dihydro-4H-pyrazolo[3,4-d]pyrimidin-4-one] | 98% |  | 
> 30 µM |  | CCOc1nc2nn(-c3c(C)cc(C)cc3O)c(Cl)c2c(=O)[nH]1 [Example 26, 3-chloro-6-ethoxy-2-(2-hydroxy-4,6-dimethylphenyl)-2,5-dihydro-4H-pyrazolo[3,4-d]pyrimidin-4-one] | 94% |  | 
> 30 µM |  | CCOc1nc2nn(-c3c(C)cc(OC(F)F)cc3C)cc2c(=O)[nH]1 [Example 147, 2-[4-(difluoromethoxy)-2,6-dimethylphenyl]-6-ethoxy-2,5-dihydro-4H-pyrazolo[3,4-d]pyrimidin-4-one] | 103% |  | 
> 30 µM |  | CCOc1nc2nn(-c3c(C)cc(C(F)(F)F)cc3F)cc2c(=O)[nH]1 [Example 64, 6-ethoxy-2-[2-fluoro-6-methyl-4-(trifluoromethyl)phenyl]-2,5-dihydro-4H-pyrazolo[3,4-d]pyrimidin-4-one] | 100% |  | 
> 30 µM |  | COc1nc2nn(-c3c(F)cc(C4CC4)cc3C(F)F)cc2c(=O)[nH]1 [Example 193, 2-[4-cyclopropyl-2-(difluoromethyl)-6-fluorophenyl]-6-methoxy-2,5-dihydro-4H-pyrazolo[3,4-d]pyrimidin-4-one] | 101% |  | 
> 30 µM |  | CCOc1nc2nn(-c3c(C)cc(Cl)cc3F)cc2c(=O)[nH]1 [Example 65, 2-(4-chloro-2-fluoro-6-methylphenyl)-6-ethoxy-2,5-dihydro-4H-pyrazolo[3,4-d]pyrimidin-4-one] | 96% |  | 
> 30 µM |  | Cc1cc(C2(F)CC2)cc(C)c1-n1cc2c(=O)[nH]c(COC(F)F)nc2n1 [Example 263, 6-[(difluoromethoxy)methyl]-2-[4-(1-fluorocyclopropyl)-2,6-dimethylphenyl]-2,5-dihydro-4H-pyrazolo[3,4-d]pyrimidin-4-one] |  |  | 104%
> 30 µM |  | Cc1cc(C2CC2)cc(C)c1-n1cc2c(=O)[nH]c(-c3ccncn3)nc2n1 [Example 171, 2-(4-cyclopropyl-2,6-dimethylphenyl)-6-(pyrimidin-4-yl)-2,5-dihydro-4H-pyrazolo[3,4-d]pyrimidin-4-one] | 100% |  | 
> 30 µM |  | CCOc1nc2nn(-c3c(Br)cc(OC(F)F)cc3C(F)F)cc2c(=O)[nH]1 [Example 184, 2-[2-bromo-4-(difluoromethoxy)-6-(difluoromethyl)phenyl]-6-ethoxy-2,5-dihydro-4H-pyrazolo[3,4-d]pyrimidin-4-one] | 94% |  | 
> 30 µM |  | O=c1[nH]c(C2CCOC2)nc2nn(-c3c(F)cc(C4CC4)cc3C(F)F)cc12 (stereo not shown) [Example 296, 2-[4-cyclopropyl-2-(difluoromethyl)-6-fluorophenyl]-6-(oxolan-3-yl)-2,5-dihydro-4H-pyrazolo [3,4-d]pyrimidin-4-one] |  |  | 104%
3.4 µM |  | CO[C@@H]1CCCC[C@@H]1c1nc2nn(-c3c(C)cc(C)cc3O)cc2c(=O)[nH]1 (racemic) [Example 12, racemic mixture of 2-(2-hydroxy-4,6-dimethylphenyl)-6-[(1R,2R)-2-methoxycyclohexyl]-2,5-dihydro-4H-pyrazolo[3,4-d]pyrimidin-4-one and 2-(2-hydroxy-4,6-dimethylphenyl)-6-[(1S,2S)-2-methoxycyclohexyl]-2,5-dihydro-4H-pyrazolo[3,4-d]pyrimidin-4-one] | 99% |  | 
